From patent US11191811B2, “Osteocalcin as a treatment for frailty associated with aging” (THE TRUSTEES OF COLUMBIA UNIVERSITY IN THE CITY OF NEW YORK, priority 2014, dated 2021)
“Also recorded” adds a separate entry of the source.

Key:
muscles of WT mice = assay: Western blot of Akt, AMPK and HSL phosphorylation in muscles of WT mice given Ocn; assay type: in vivo, mouse
Method: FIG. 31. Osteocalcin treatment increases muscle function in young and old WT mice. (A-B) Performance during endurance exercise of 3 month-old WT, Gprc6af/f and Gprc6aMck−/− female mice treated with Ocn (n=6-10 per group). (C) Performance during endurance exercise of 12 and 15 month-old WT female mice treated with Ocn (n=6-10 per group). (D) Western blot analysis of Akt phosphorylation (Ser473) in muscles of WT mice injected with Ocn (500 ng/g) after a single bout of exercise. (E) Western blot analysis of AMPK phosphorylation ([…]) in muscles of WT mice injected with Ocn (500 ng/g) after a single bout of exercise. (F) Western blot analysis of HSL phosphorylation (Ser563) in muscles of WT mice injected with Ocn (500 ng/g) after a single bout of exercise. (G) Uptake of ^3H-2-DG in glycolytic (Gly—white quadriceps) and oxidative (Ox—red quadriceps) muscles after a single bout of exercise in 15 month-old WT mice receiving Ocn before running (n=5 per group). (H) Performance during endurance exercise of 10 month-old WT mice receiving Ocn for 28 days (n=7 per group). (I) Expression of Cd36, Fatp1 and Cpt1b in gastrocnemius of 10 month-old WT mice receiving Ocn for 28 days (n=7 per group). (J) Western blot analysis of Akt phosphorylation (Ser473) in muscles of WT mice receiving Ocn for 28 days (n=7 per group). (K) Schematic representation of how osteocalcin signaling in myofibers and IL-6 cooperate to increase exercise capacity.
To determine if osteocalcin has the same ability in older mice, 12 and 15 month-old mice that have low circulating osteocalcin levels were injected prior to running with 500 ng/g of body weight of osteocalcin in order to raise their circulating levels substantially. […] This was due to an increase in the phosphorylation of Akt, AMPK and HSL, as well as in glucose uptake, that occurred to a greater extent in oxidative muscles that express Gprc6a at the highest level, than in glycolytic muscles (FIG. 31C-F). Whether chronic delivery of osteocalcin through mini-pumps (90 ng/hour) for 28 days would increase muscle function in 9 month old mice that have the lowest circulating osteocalcin levels was also tested. […] This improved ability to perform exercise was caused in part by an increase in the expression in muscle of the fatty acid transporter Fatp1 and an activation of the Akt pathway (FIG. 31H-).

[1] = system: glycolytic and oxidative muscles of WT mice; assay: In vivo 3H-2-DG glucose uptake in muscle after exercise; set-up: species or system mouse; conditions: older WT mice receiving Ocn (500 ng/g) before running; greater extent in oxidative than glycolytic muscles
Method: FIG. 31. Osteocalcin treatment increases muscle function in young and old WT mice. (A-B) Performance during endurance exercise of 3 month-old WT, Gprc6af/f and Gprc6aMck−/− female mice treated with Ocn (n=6-10 per group). (C) Performance during endurance exercise of 12 and 15 month-old WT female mice treated with Ocn (n=6-10 per group). (D) Western blot analysis of Akt phosphorylation (Ser473) in muscles of WT mice injected with Ocn (500 ng/g) after a single bout of exercise. (E) Western blot analysis of AMPK phosphorylation ([…]) in muscles of WT mice injected with Ocn (500 ng/g) after a single bout of exercise. […]
Glucose and insulin tolerance tests were performed as previously described (Lee et al., 2007, Cell 130:456-469). For in vivo glucose uptake, a bolus of 2-deoxy-d-[^3H]glucose (^3H-2-DG, Perkin Elmer) (10 μCi) was administered before an endurance run. ^3H-2-DG and ^3H-2-DG-6-P content in muscle was determined by liquid scintillation counter and normalized to muscle weight. […] GLUT4 translocation was determined by flow cytometry using an antibody against the extracellular domain of the GLUT4 protein (Santa Cruz, Sc-1606). […] To analyze mitochondrial function, myofibers were treated with three compounds in succession (oligomycin 10 μg/ml, FCCP 200 μM, rotenone 0.2 μM) and OCR was recorded following administration of each of them.

Osteocalcin−/− embryos = assay: Brain histology, apoptosis and Western blot of Osteocalcin−/− offspring of injected Osteocalcin−/− mothers; assay type: in vivo, mouse
Method: FIG. 13. Maternal osteocalcin determines spatial learning and memory in adult offspring. (A-F) DLT (A), EPMT (B), OFT (C), FST (D), TST (E), and MWMT (F) performed in 3-month-old Osteocalcin^−/− mice born from Osteocalcin^−/− mothers injected once a day with vehicle or recombinant uncarboxylated osteocalcin (240 ng/day) during pregnancy compared to WT mice. (G) Surface of the lateral ventricle over brain area (%) of E18.5 hippocampi coronal sections of WT embryos originating from WT mothers and Osteocalcin^−/− embryos originating from osteocalcin-injected Osteocalcin^−/− mothers. (H) Number of apoptotic cells (stained by TUNEL assay) of E18.5 hippocampi coronal sections of WT embryos originating from WT mothers and Osteocalcin^−/− embryos originating from Osteocalcin^−/− mothers injected with osteocalcin (240 ng/day). (I) Cresyl violet, NeuN immunofluorescence, and dentate gyrus area (% versus WT) of WT and Osteocalcin^−/− embryos originating from osteocalcin-injected Osteocalcin^−/− mothers. Scale bars=0.5 mm.
Immunofluorescence of whole adult and embryonic brains was performed on […] coronal cryostat slices of tissue fixed with 4% PFA, embedded in cryomatrix (Tissue-Tek) and stored at −80° C. Sections were allowed to dry at room temperature, post-fixed in 4% PFA followed by permeabilization with 0.1% Triton detergent. After room temperature blocking with donkey serum, sections were incubated with anti-Neun antibody (Millipore) overnight at 4° C. Slides were mounted with Fluorogel (Electron Microscopy Sciences).
Cresyl violet staining to visualize brain morphology was carried out by incubating 20 μm cryosections defatted with 1:1 chloroform:ethanol in cresyl violet acetate (1 g/L) overnight. The stain was differentiated using ethanol and xylene and mounted using DPX mounting medium for histology (Sigma).
To assess apoptosis in WT and Osteocalcin^−/− brains, 20 μm cryostat sections were processed using the APOPTAG® Fluorescein Direct In Situ Apoptosis Detection Kit (Millipore) according to manufacturer's protocol. Images were obtained using Leica DM 4000B, and Image J was used to quantify cell number and intensity of staining.
To further evaluate the importance of maternal osteocalcin for the acquisition of spatial learning and memory in adult offspring, pregnant Osteocalcin^−/− mothers from E0.5 to E18.5 were treated with injections, once a day, of osteocalcin (240 ng/day). Osteocalcin was never injected in these females or their pups after delivery. […] Likewise, the number of apoptotic cells was reduced and the number of NeuN positive cells was increased compared to Osteocalcin^−/− embryos originating from Osteocalcin^−/− mothers that were not injected (FIG. 13I-J).

[2] = WT mice injected with Ocn (500 ng/g), after a single bout of exercise, listed as osteocalcin
[3] = E18.5 embryos, versus embryos of mothers not injected

Substance: uncarboxylated osteocalcin: Recombinant uncarboxylated mouse osteocalcin, bacterially produced, purified on glutathione beads and cleaved from the GST subunit by thrombin (YLGASVPSPDPLEPTREQCELNPACDELSDQYGLKTAYKRIYGITI)
- phosphorylation of AMPK in muscle (muscles of WT mice; WT mice injected with Ocn (500 ng/g), after a single bout of exercise): increase
- phosphorylation of Akt in muscle (muscles of WT mice; WT mice injected with Ocn (500 ng/g), after a single bout of exercise, listed as Osteocalcin): induced
- phosphorylation of Akt in muscle (muscles of WT mice; [2]): increase
- phosphorylation of HSL (Ser563) in muscle (muscles of WT mice; [2]): enhanced; also recorded: increase
- Akt pathway in muscle (muscles of WT mice; mini-pumps 90 ng/hour for 28 days): activation
- glucose uptake in muscle [1]: increase
- cerebral ventricle enlargement (Osteocalcin−/− embryos; E18.5 Osteocalcin−/− embryos, mothers injected 240 ng/day, cresyl violet): rescue
- Caspase-3 cleaved protein level in the hippocampus (Osteocalcin−/− embryos; E18.5 embryos, Western blot, versus mothers not injected): decrease
- number of NeuN positive cells (Osteocalcin−/− embryos; [3]): increased
- number of apoptotic cells (Osteocalcin−/− embryos; [3]): reduced
- thickness defect in the CA3 and CA4 regions of the hippocampus (Osteocalcin−/− embryos; adult Osteocalcin−/− originating from Osteocalcin−/− mothers): rescue
